Test results taken from PubChem BioAssay (NCI).
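Five compound concentrations were applied to cells in 96-well plates for 48 hours; endpoints were derived by simple linear interpolation of the resulting dose-response curve. TGI: total growth inhibition.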 Where a SMILES comes first, the peptide text is derived from it. The star is where a group is joined. Cbz = O=C(OCc1ccccc1)*

Experiments:
Assay in all cases: DTP human tumour cell line panel, 48 h
[1] = test system: SNB-75 CNS
[2] = test system: OVCAR-3 ovarian
[3] = test system: NCI-H460 lung
[4] = test system: 786-0 renal
[5] = test system: ACHN renal
[6] = test system: K-562 leukemia
[7] = test system: CAKI-1 renal
[8] = test system: HCT-116 colon
[9] = test system: M14 melanoma
[10] = test system: SF-295 CNS
[11] = test system: OVCAR-8 ovarian
[12] = test system: HOP-92 NSCLC
[13] = test system: UO-31 renal
[14] = test system: HCC-2998 colon
[15] = test system: SK-MEL-28 melanoma
[16] = test system: LOX IMVI melanoma
[17] = test system: BT-549 breast

| Structure (SMILES) | TGI [1] [µM] | TGI [2] [µM] | TGI [3] [µM] | TGI [4] [µM] | TGI [5] [µM] | TGI [6] [µM] | TGI [7] [µM] | TGI [8] [µM] | TGI [9] [µM] | TGI [10] [µM] | TGI [11] [µM] | TGI [12] [µM] | TGI [13] [µM] | TGI [14] [µM] | TGI [15] [µM] | TGI [16] [µM] | TGI [17] [µM] |
| --- | --- | --- | --- | --- | --- | --- | --- | --- | --- | --- | --- | --- | --- | --- | --- | --- | --- |
| O=[N+]([O-])/C=C/COCc1cc2c(cc1Br)OCO2 | 31.7 | 30.3 | > 100 | 30.6 | 30 | > 100 | 35.6 | 34.1 | 29.9 | > 100 | > 100 | 65.3 | 32.3 | 34.2 | 25.4 | > 100 |  |
| Nc1ccccc1OCc1cc(=O)c(OCc2ccccc2)co1 |  | > 100 | > 100 | 76.5 | > 100 | > 100 | > 100 | > 100 | > 100 | 95.1 | > 100 | 36.4 |  |  | > 100 | > 100 | > 100 |
| COc1cc(C2c3cc4c(cc3OC(NCc3ccccc3)C2C)OCO4)cc(OC)c1OC (configuration not stated) |  | 3.1 | > 34.7 | 44.1 | > 39.8 | > 37.8 | 0.982 |  | 67.1 | 0.673 | > 100 | 20.3 | 26.4 | 4 | > 100 | 17.2 | 16.4 |
| CC(=O)OCC1OC(n2c(C)c(C(C)=O)c(-c3cccc4ccccc34)c(C#N)c2=S)C(OC(C)=O)C(OC(C)=O)C1OC(C)=O (configuration not stated) | > 100 | > 100 | > 100 | > 100 | > 100 | > 100 | > 100 | > 100 | > 100 | > 100 | > 100 | > 100 | 0.249 | > 100 | > 100 | > 100 |  |
| O=S1c2ccccc2SCSc2ccccc21 |  | > 100 | > 100 | > 100 | > 100 | 75.8 | > 100 | > 100 | > 100 | > 100 | > 100 | > 100 | > 100 | > 100 |  |  |  |
| CCOC(=O)C(CC(=O)OC)NC(=O)C(CC(=O)OC)NC(=O)C(CC(=O)OC)NC(=O)C(CC(=O)OC)NC(=O)OCc1ccccc1 (configuration not stated) (Cbz-D(OMe)D(OMe)D(OMe)D(OMe)-OEt; configuration not given here) | > 100 |  | > 100 | > 100 | > 100 | > 100 |  | > 100 | > 100 |  | > 100 | > 100 | > 100 | > 100 | > 100 |  | > 100 |
| O=C(CC(C(=O)c1cccs1)c1ccsc1)c1ccco1 (configuration not stated) | 84.4 | > 100 | 81.9 | > 100 | 99.2 |  | 77.3 | 56.5 | 43.5 | > 100 | > 100 | > 100 | 59 | > 100 | > 100 | > 100 |  |
| CC1CC(C)(O)CC(C(O)CC2CC(=O)NC(=O)C2)C1=O (configuration not stated) | 1.27 | 3.43 | 1.76 | 0.741 | 1.17 | 0.706 | 0.0916 | 0.704 | 0.551 | 0.142 | 2.89 | 0.625 | 1.16 | 1.59 | 3.55 | 0.785 |  |
| CCOC(=O)C(=CNC(=S)Nc1c(CC)cccc1CC)C(=O)OCC | 92.6 | > 100 | > 100 | > 100 | > 100 | > 100 | > 100 | > 100 | > 100 | > 100 | > 100 | > 100 | > 100 | > 100 | > 100 | > 100 |  |
| CC(C)(C)N(Cc1ccoc1)C(=O)/C=C\S(=O)c1ccccc1 (configuration not stated) |  | 26.2 |  | 67 | 86.5 | > 100 | 27.6 | 34.1 | 40 | > 100 | 32.1 | 34.4 | 27.6 | 34.3 | 44.4 | 21.8 | 30.3 |
| Cc1ccc(CCCCCOc2ccc(C3=NCCO3)cc2)s1 | > 100 | > 100 | > 100 | > 100 | > 100 | > 100 | > 100 | > 100 | > 100 | > 100 | > 100 |  | > 100 | > 100 | > 100 |  | > 100 |
| CCCCCCCSCC1C(=O)C23C(O)C1CCC2C12COC3(O)C(O)C1C(C)(C)CCC2O (configuration not stated) | 49.2 | 30.3 | 29.8 | 26.7 | 24.9 | 15.8 | 15.7 | 18.7 | 24.7 | 33.4 | 31.1 | 31.8 | 23.5 | 31.4 | 22.7 | 29.2 |  |
| Fc1ccc(Nc2nnc(-c3ccccn3)s2)cc1 |  | > 100 | > 100 | > 100 | > 100 |  | > 100 | > 100 | > 100 | > 100 | > 100 | > 100 |  |  | > 100 | > 100 | > 100 |
| CC(C)(C)c1cc(C(=O)/C=C/c2ccc3c(c2)CCO3)cc(C(C)(C)C)c1O |  | > 100 | 1.92 | 11.2 | > 100 | > 100 | 22.1 | > 33.7 | 5.25 |  | > 100 | > 100 | > 54 | 3.8 | > 100 | > 100 | > 63.6 |
| CCOC(=O)/C=C/c1c[nH]c(C(=O)OCC)c1 | > 100 | > 100 | > 100 |  |  | > 100 | > 100 | > 100 |  | > 100 | > 100 | > 100 | > 100 | > 100 | > 100 | > 100 |  |
| [C-]#[N+]C1(C(=O)OCC)CC1 | > 100 | > 100 | > 100 | > 100 | > 100 | > 100 |  | > 100 | > 100 | > 100 | > 100 | > 100 |  | > 100 | > 100 | > 100 |  |
| FC(F)(F)C1(C(F)(F)F)O[SiH]2(OC(C(F)(F)F)(C(F)(F)F)c3ccccc32)c2ccccc21 |  | 40.6 | 25.5 | 31.7 | 78.8 | 31.6 | 87.1 |  | 29.4 | 20.3 | 83.9 |  | 30.7 | 37.4 | 72.6 |  |  |
| CN(C)/C=C/c1ccncc1 |  | > 100 | > 100 | > 100 | > 100 | > 100 | > 100 | > 100 | > 100 | > 100 | > 100 | > 100 | > 100 | > 100 | > 100 | > 100 | > 100 |
| CN(C)CCCNc1ccc2nnn3c4ccc(OC(=O)c5ccc([N+](=O)[O-])cc5)cc4c(=O)c1c23 |  | 24.1 | 17.9 | 16.6 | 14.1 | 18.9 | 7.59 | 32.7 | 27 | 20.5 | 20.8 | > 57.6 | 21 | 25.5 | 26.6 | > 100 | 35.8 |
| CC(C)c1nc2c(Cl)c3ncccc3cc2[nH]c1=O | > 100 | > 100 | > 100 | > 100 | > 100 | > 100 | > 100 | > 100 | > 100 | > 100 | > 100 | > 100 | > 100 |  | > 100 |  | > 100 |
| O=C1C(=C(C(=O)c2ccccc2)C(=O)c2ccccc2)OC(c2ccccc2)=C1C(=O)c1ccccc1 |  | 23 | 19.2 | 20 | 20.1 | 95 | 11.2 | 14.1 | 31 | 32.1 | 15.7 | 31.6 | 26.7 | 27.6 | 59 | 18.5 | 19.9 |
| O=C(CN1CCOCC1)Nc1ccc2c(c1)C1Oc3ccccc3CC1CO2 (configuration not stated) |  | > 100 |  | > 100 | > 100 | > 100 | > 100 | > 100 | > 100 | > 100 | > 100 | > 100 | > 100 | > 100 |  | > 100 | > 100 |
| COc1ccc(CCc2ccccc2CC(=O)O)cc1 | > 100 | > 100 | > 100 | > 100 | > 100 | > 100 | > 100 | > 100 | > 100 | > 100 | > 100 | > 100 | > 100 | > 100 | > 100 | > 100 |  |
| CC1=NN(C(=O)c2ccccc2O)C(c2ccccc2Cl)C1C(=O)Nc1ccccc1 (configuration not stated) |  | > 51.3 | > 53.1 | > 44.9 | > 100 | > 100 | > 100 |  | 33.1 | > 100 | > 100 | > 100 |  | > 100 | > 100 | > 36.5 |  |
| COC(=O)CC1(O)C(/C=C/c2ccccc2)C(C(=O)OC)C(=O)C(C(=O)OC)C1C(=O)OC (configuration not stated) |  | > 100 | > 100 | > 100 | > 100 | > 100 | > 100 | > 100 | > 100 | > 100 | > 100 | > 100 | > 100 | > 100 | > 100 | > 100 |  |
| COc1ccc(NS(=O)c2ccc(OC)cc2)cc1 (configuration not stated) |  | > 100 | > 100 | > 100 | > 100 | > 100 | > 100 | > 100 | > 100 | > 100 | > 100 |  | 48.5 | > 100 | > 100 | > 100 | > 100 |
| O=CC1C[C@@H](N2C(=O)O[C@@H](c3ccccc3)[C@H]2c2ccccc2)[C@@H]1COCc1ccccc1 (some centres not stated) |  | 36.4 | 41.7 | 31.2 | 73.2 | > 100 | > 100 | 32.8 | 34.2 | 39.9 | 55.9 | 30.3 | 29.3 | 34.9 | 40.4 | 38.6 | 43.3 |
| O=C(/C=C(\O)c1ccc(Cl)cc1)C(=O)NN=C(c1ccccc1)c1ccccc1 | > 100 | > 100 | 31.3 | > 100 | > 100 | > 100 | > 100 | > 100 | > 100 | > 100 | 97.6 |  | 90.4 | > 100 |  |  | > 100 |
| CCOC(=O)c1nc2ccccc2nc1Oc1ccc(OC)cc1 |  | > 100 | > 100 | > 100 | > 100 | > 100 |  | > 100 | > 100 | > 100 | > 100 | > 100 | > 100 |  | > 100 | > 100 | > 100 |
| O=C(n1c(=O)n(-c2ccc(Cl)cc2)c(=O)n1C(=O)C(Cl)(Cl)Cl)C(Cl)(Cl)Cl |  | > 100 | > 100 | > 100 | > 100 | > 100 | > 100 | > 100 |  | > 100 | > 100 | > 100 | > 100 | > 100 | > 100 | > 100 | > 100 |
